System: Meloidogyne incognita
Experiment: Meloidogyne incognita test: gall rating on cucumber plants in pots after soil application
Format: in vivo
Design: key: 0: no galls; 1: very few small galls; 2: numerous small galls; 3: numerous small galls of which some are grown together; 4: numerous small and some big galls; 25% of roots severely galled; 6: 50% of roots severely galled; 75% of roots severely galled; 8: no healthy roots but plant is still green; 9: roots rotting and plant dying; 10: plant and roots dead
Conditions: 1000 ppm applied to soil inoculated with 5000 eggs & J2s; cucumber seedlings; rated 30 days after application; 0-10 scale (Zeck 1971); untreated check up to 8
Experimental: Meloidogyne incognita Test:
The trial pots were filled with soil containing a mixture of sand:soil:cocopeat in a ratio of 1:1:1. To the soil of each pot 5 mL of a nematode suspension (Meloidogyne incognita, mix of 5000 eggs & J2s) was added. One hour later the respective test compound at the stated concentration was applied to each pot. 10 days old cucumber seedlings were transplanted into the pots one day after the application. The cucumber plants were allowed to grow at a temperature of 27° C. under greenhouse conditions. The evaluation of the gall rating was recorded 30 days after the application. The plants were carefully uprooted and the roots were thoroughly washed. The gall rating was done on a 0-10 scale as described by Zeck (1971) and shown below: • 0=no galls • 1=very few small galls • 2=numerous small galls • 3=numerous small galls of which some are grown together • 4=numerous small and some big galls • 5=25% of roots severely galled • 6=50% of roots severely galled • 7=75% of roots severely galled • 8=no healthy roots but plant is still green • 9=roots rotting and plant dying • 10=plant and roots dead

Row | Structure (SMILES) | gall rating scale
1 | Cc1c(C(=O)NS(=O)(=O)c2ccccc2F)nnn1-c1ccc(C#N)cc1F [Compound 415] | 4
2 | O=C(NS(=O)(=O)c1ccccc1C(F)(F)F)c1nnn(-c2ccc(F)cc2F)c1C(F)(F)F [Compound 736] | 4
3 | Cc1c(C(=O)NS(=O)(=O)c2ccccc2C(F)(F)F)nnn1-c1cc(Cl)c(Cl)cc1Cl [Compound 657] | 4
4 | O=C(NS(=O)(=O)c1cc(Cl)ccc1Cl)c1nnn(-c2cc(Cl)ccc2Cl)c1C(F)(F)F [Compound 371, 1-(2,5-dichlorophenyl)-N-((2,5-dichlorophenyl)sulfonyl)-5-(trifluoromethyl)-1H-1,2,3-triazole-4-carboxamide] | 4
5 | COc1ccc(C)cc1S(=O)(=O)NC(=O)c1nnn(-c2ccc(OC(F)(F)F)cc2Cl)c1C(F)(F)F [Compound 590] | 4
6 | Cc1c(C(=O)NS(=O)(=O)c2cc(C(F)(F)F)ccc2C(F)(F)F)nnn1-c1c(Cl)cc(Cl)cc1Cl [Compound 430] | 4
7 | O=C(NS(=O)(=O)c1cc(C(F)(F)F)ccc1Cl)c1nnn(-c2ccc(F)cc2F)c1C(F)(F)F [Compound 774] | 4
8 | Cc1c(C(=O)NS(=O)(=O)c2ccc(F)cc2F)nnn1-c1ccc(OC(F)F)cc1Cl [Compound 672] | 4
9 | N#Cc1ccc(-n2nnc(C(=O)NS(=O)(=O)c3ccccc3OC(F)(F)F)c2C(F)(F)F)c(Cl)c1 [Compound 395, 1-(2-chloro-4-cyanophenyl)-N-((2-(trifluoromethoxy)phenyl)sulfonyl)-5-(trifluoromethyl)-1H-1,2,3-triazole-4-carboxamide] | 4
10 | O=C(NS(=O)(=O)c1cc(C(F)(F)F)ccc1Cl)c1nnn(-c2ccc(OC(F)(F)F)cc2Cl)c1C(F)(F)F [Compound 171, 1-(2-chloro-4-(trifluoromethoxy)phenyl)-N-((2-chloro-5-(trifluoromethyl)phenyl)sulfonyl)-5-(trifluoromethyl)-1H-1,2,3-triazole-4-carboxamide] | 4
11 | Cc1c(C(=O)NS(=O)(=O)c2cc(F)cc(F)c2)nnn1-c1ccc(OC(F)F)cc1Cl [Compound 673] | 4
12 | COc1ccc(Cl)c(S(=O)(=O)NC(=O)c2nnn(-c3ccc(C#N)cc3F)c2C(F)(F)F)c1 [Compound 538, N-((2-chloro-5-methoxyphenyl)sulfonyl)-1-(4-cyano-2-fluorophenyl)-5-(trifluoromethyl)-1H-1,2,3-triazole-4-carboxamide] | 4
13 | Cc1c(C(=O)NS(=O)(=O)c2ccccc2OC(F)(F)F)nnn1-c1cc(Cl)cc(Cl)c1 [Compound 17] | 4
14 | Cc1c(C(=O)NS(=O)(=O)c2cc(C(F)(F)F)ccc2Br)nnn1-c1ccc(Cl)cc1Cl [Compound 261] | 4
15 | Cc1c(C(=O)NS(=O)(=O)c2cc(Cl)ccc2F)nnn1-c1ccc(OC(F)(F)F)cc1Cl [Compound 168, N-((5-chloro-2-fluorophenyl)sulfonyl)-1-(2-chloro-4-(trifluoromethoxy)phenyl)-5-methyl-1H-1,2,3-triazole-4-carboxamide] | 4
16 | Cc1c(Cl)cccc1S(=O)(=O)NC(=O)c1nnn(-c2ccc(OC(F)(F)F)cc2Cl)c1C(F)(F)F [Compound 596, N-((3-chloro-2-methylphenyl)sulfonyl)-1-(2-chloro-4-(trifluoromethoxy)phenyl)-5-(trifluoromethyl)-1H-1,2,3-triazole-4-carboxamide] | 4
17 | Cc1c(C(=O)NS(=O)(=O)c2cc(F)ccc2F)nnn1-c1ccc(OC(F)F)cc1Cl [Compound 674] | 4
18 | Cc1c(C(=O)NS(=O)(=O)c2cc(C(F)(F)F)ccc2Cl)nnn1-c1ccc(OC(F)(F)F)cc1Cl [Compound 135] | 4

Row | Structure (SMILES) | gall rating scale
19 | N#Cc1ccc(-n2nnc(C(=O)NS(=O)(=O)c3ccccc3C(F)(F)F)c2C(F)(F)F)c(Cl)c1 [Compound 394, 1-(2-chloro-4-cyanophenyl)-5-(trifluoromethyl)-N-((2-(trifluoromethyl)phenyl)sulfonyl)-1H-1,2,3-triazole-4-carboxamide] | 4
20 | CCc1c(C(=O)NS(=O)(=O)c2ccccc2F)nnn1-c1ccc(OC(F)(F)F)cc1Cl [Compound 339, 1-(2-chloro-4-(trifluoromethoxy)phenyl)-5-ethyl-N-((2-fluorophenyl)sulfonyl)-1H-1,2,3-triazole-4-carboxamide] | 4
21 | Cc1c(C(=O)NS(=O)(=O)c2cc(C(F)(F)F)ccc2F)nnn1-c1ccc(Cl)cc1Cl [Compound 240] | 4
22 | O=C(NS(=O)(=O)c1c(F)cccc1F)c1nnn(-c2ccc(Cl)cc2C(F)(F)F)c1C(F)(F)F [Compound 52] | 4
23 | O=C(NS(=O)(=O)c1ccccc1)c1nnn(-c2cc(Cl)cc(Cl)c2)c1C(F)(F)F [Compound 35, 1-(3,5-dichlorophenyl)-N-(phenylsulfonyl)-5-(trifluoromethyl)-1H-1,2,3-triazole-4-carboxamide] | 4
24 | Cc1ccc(C)c(S(=O)(=O)NC(=O)c2nnn(-c3ccc(Cl)cc3F)c2C)c1 [Compound 433] | 4
25 | O=C(NS(=O)(=O)c1cc(C(F)(F)F)ccc1Cl)c1nnn(-c2ccc(Cl)cc2Cl)c1C(F)(F)F [Compound 210] | 4
26 | Cc1c(C(=O)NS(=O)(=O)c2cc(C(F)(F)F)ccc2Cl)nnn1-c1ccc(F)cc1Cl [Compound 252, 1-(2-chloro-4-fluorophenyl)-N-((2-chloro-5-(trifluoromethyl)phenyl)sulfonyl)-5-methyl-1H-1,2,3-triazole-4-carboxamide] | 4
27 | Cc1c(C(=O)NS(=O)(=O)c2ccc(Cl)c(F)c2)nnn1-c1ccc(C#N)cc1Cl [Compound 499] | 4
28 | Cc1c(C(=O)NS(=O)(=O)c2cc(Cl)ccc2Cl)nnn1-c1cc(Cl)cc(Cl)c1 [Compound 8, 1-(3,5-dichlorophenyl)-N-((2,5-dichlorophenyl)sulfonyl)-5-methyl-1H-1,2,3-triazole-4-carboxamide] | 4
29 | CCc1c(C(=O)NS(=O)(=O)c2cc(C(F)(F)F)ccc2Cl)nnn1-c1ccc(Cl)cc1Cl [Compound 231] | 4
30 | O=C(NS(=O)(=O)c1ccc(Cl)cc1Cl)c1nnn(-c2cc(Cl)c(Cl)cc2Cl)c1C(F)(F)F [Compound 709] | 4
31 | Cc1c(C(=O)NS(=O)(=O)c2ccccc2C(F)(F)F)nnn1-c1ccc(Cl)cc1Cl [Compound 241] | 4
32 | Cc1c(C(=O)NS(=O)(=O)c2cc(F)cc(F)c2)nnn1-c1ccc(OC(F)(F)F)cc1Cl [Compound 140] | 4
33 | Cc1c(C(=O)NS(=O)(=O)c2c(F)cc(F)cc2F)nnn1-c1ccc(OC(F)F)cc1Cl [Compound 675] | 4
34 | Cc1c(C(=O)NS(=O)(=O)c2cc(Cl)c(Cl)cc2Cl)nnn1-c1ccc(OC(F)F)cc1Cl [Compound 676] | 4
35 | Cc1ccc(C)c(S(=O)(=O)NC(=O)c2nnn(-c3ccc(C(F)(F)F)cc3Cl)c2C)c1 [Compound 670] | 4
36 | CCc1c(C(=O)NS(=O)(=O)c2cc(C(F)(F)F)ccc2Cl)nnn1-c1ccc(OC(F)(F)F)cc1Cl [Compound 311, 1-(2-chloro-4-(trifluoromethoxy)phenyl)-N-((2-chloro-5-(trifluoromethyl)phenyl)sulfonyl)-5-ethyl-1H-1,2,3-triazole-4-carboxamide] | 4
